The test system of data set [1] is ischemia-reperfusion cerebral infarction model. Put plainly: Ischemia-reperfusion cerebral infarction (MCAO) model in male SD rats. To be noted: 90-min MCAO ischemia-reperfusion, 1 mg/kg tail vein after reperfusion, model group 32.4%, P<0.05 vs. model group. It is filed as in vivo. From the text:
Assay Example 3: Pharmacodynamic Evaluation of the Compound in Ischemia-Reperfusion Cerebral Infarction Model in Male SD Rats Object of the assay: pharmacodynamic assay to explore the improvement of compound 32 on the ischemia-reperfusion cerebral infarction model in rats Materials of the assay: male SD rats (250 g-280 g, SPF grade, Zhejiang Vital River Laboratory Animal Technology Co., Ltd.) • 1) Anesthesia: Respiratory anesthesia with 2.5% isoflurane was used to maintain the depth of anesthesia for animals. • 2) Middle Cerebral Artery Occlusion (MCAO) Model: Animals weighed in the range of 250-280 g at the time of modeling surgery. […] For the administration of the assay sample group, compound 32 was injected through the tail vein of rats after reperfusion with a dose of 1 mg/kg and a volume of 5 mL/kg. • 3) Success criteria for the model: • 1: Within 60 minutes after surgery, the animals were scored according to the Bederson method, and the animals with a score of 2-3 were included in the group. • 2: Within 30-60 minutes of modeling, if the cerebral blood flow on the model side (left side) was reduced by more than 30% compared with that on the right side, the model was considered successful, and the animal was included in the group. […]

For a further data set, the target named is T1, S1P1 (Homo sapiens, UniProt P21453).
T1 construct: host or cells: U2OS
T1 sequence (P21453 whole entry): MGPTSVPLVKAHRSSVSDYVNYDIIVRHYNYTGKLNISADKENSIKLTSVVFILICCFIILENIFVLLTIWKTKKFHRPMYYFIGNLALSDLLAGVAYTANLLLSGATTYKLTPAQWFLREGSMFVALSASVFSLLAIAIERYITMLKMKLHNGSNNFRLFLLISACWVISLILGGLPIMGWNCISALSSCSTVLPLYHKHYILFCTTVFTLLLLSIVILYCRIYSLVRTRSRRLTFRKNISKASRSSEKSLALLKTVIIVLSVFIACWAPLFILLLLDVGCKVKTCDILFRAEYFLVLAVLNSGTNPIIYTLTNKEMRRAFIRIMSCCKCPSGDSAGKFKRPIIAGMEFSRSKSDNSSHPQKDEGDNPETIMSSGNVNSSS
Description: In vitro agonistic activity on S1P1, U2OS-EDG1 cells, LiveBLAzer FRET B/G. It is filed as cell-based. On the procedure:
Assay Example 1: In Vitro Evaluation of the Agonistic Activity of the Compounds of the Present Disclosure on S1P1
Object of the assay: To detect the agonistic activity of compounds on S1P1
• 1. Cells U2OS-EDG1 (Batch No.: Invitrogen-K1520) were taken out of a liquid nitrogen tank and placed in a 37° C. water bath to thaw quickly; • 2. The cell suspension was aspirated into a 15 ml centrifuge tube, resuspended in 5 ml of preheated medium, and centrifuged at 1000 rpm for 5 min; • 3. The supernatant was discarded. The cells were resuspended in 10 ml of medium, transferred into a T75 culture flask, and cultivated in an incubator with 5% CO2 at 37° C. II. Agonist Assay • 1. The compounds were diluted to working concentrations, and serially diluted 3-fold by Echo 555 (manufacturer: Labcyte) to obtain 10 concentrations; 200 nL of each concentration of the compound was transferred to a cell plate and centrifuged at 1000 rpm for 15 seconds; • 2. Culture medium was aspirated from the culture flask; 4 mL of Dulbecco's phosphate buffer (DPBS, supplier: Coring, item No.: 21-031-CVR, batch No.: 03318006) was added, and the residual serum was washed away; 2 mL of trypsin was added; The mixture was incubated in an incubator at 37° C. for 2 min, and the cells were digested; 10 mL of seeding medium was added to resuspend the cells; 0.6 mL of cell suspension was taken out and counted; • 3. The density of cells was adjusted to 1.88E+05 cells/mL using seeding medium, with 40 μL per well (7500\well); 40 μL of FreeStyle™ Expression medium was added around the cell plate; The plate was let stand at room temperature for 15 min and incubated at 37° C. with 5% CO2 for 20 hours. III. Signal Detection • 1. LiveBLAzer™-FRET B/G Substrate (CCF4-AM) assay reagents were formulated according to the instructions; • 2. 8 μL of 6×Substrate Mixture was added to each well of the cell plate; The plate was centrifuged at 1000 rpm for 15 seconds, covered with a film, and incubated at 23° C. for 2 hours; The cell plate was subjected to Envision […] detection. IV. Data Analysis • 1. The raw data were converted into % Effect by using an equation, and the EC50 value can be obtained by curve fitting with four parameters [“log(agonist) vs. response—Variable slope” model in GraphPad Prism]; • 2. Calculation formula: Ratio=(460 nm−blank)/(535 nm−blank) % Effect=(SampleRatio−Ave LCRatio)/(Ave HCRatio−Ave LCRatio)×100%

A short description of data set [2]: Pharmacokinetic evaluation in SD rats (iv and oral). Particulars: male, Sprague-Dawley, rat, plasma, iv 1.0, po 2.0 mg/kg. The format is in vivo, Sprague Dawley rats. As for the experimental part: Assay Example 2: Pharmacokinetic Evaluation of Compounds in Rats
Object of the assay: To evaluate the in vivo pharmacokinetics of the compounds in SD rats
Sprague Dawley rats (male, 200-300 g, 7-9 weeks old, Shanghai SLAC)
The pharmacokinetic characteristics of the compounds in rodents after intravenous injection and oral administration were assayed according to the standard protocol. In the assay, the candidate compounds were formulated into clear solutions and administered to rats by single intravenous injection and oral administration. The vehicle for intravenous injection and oral administration was DMSO and 10% hydroxypropyl β-cyclodextrin in water (DMSO:10% hydroxypropyl β-cyclodextrin in water=5:95). Whole blood samples were collected within 48 hours, and centrifuged at 3000 g for 15 minutes. The supernatant was separated to give plasma samples. 4 times the volume of acetonitrile solution containing internal standard was added to precipitate protein. The resulting mixture was centrifuged and the supernatant was taken out. An equal volume of water was added and the mixture was centrifuged. The supernatant was taken out, and injected as a sample to quantitatively analyze the plasma drug concentration by LC-MS/MS analysis method. The pharmacokinetic parameters, such as peak concentration, time to peak, clearance rate, half-life, area under drug-time curve, bioavailability, etc., were calculated.

As a reminder, the EC50 is the midpoint of the concentration-response curve. As a reminder, the Emax is the size of the effect at its maximum, as opposed to the concentration needed. Broadly, the bioavailability is dose-corrected exposure relative to a reference, in per cent. As for `C/C(=N\OCc1ccc(OC(C)C)c(C(F)(F)F)c1)c1ccc2c(c1)CCC2N1CC(C(=O)O)C1` (stereo not drawn) [Compound 32], in data set [1], the “Percentage of left cerebral infarct area” value amounted to 21.0%. The compound also registered an EC50 on S1P1 of 2.3 nM. At S1P1 (% Effect), this compound registered an Emax of 98.6%. For the same compound, the clearance in data set [2] (intravenous, read-out: Clearance rate CL) was 11.3 mL/min/kg. Further, the Vd in data set [2] (intravenous, read-out: Distribution in tissue Vdss) came to 4.35 L/kg. Besides, the bioavailability in data set [2] (read-out: Bioavailability F) stood at 92.7%. In data set [2] (read-out: Peak concentration Cmax), the Cmax was determined as 556 nM. Moreover, in data set [2] (po, 2 mg/kg, PO, read-out: Area under drug-time curve AUC0-last PO), the AUC(0-t) was 5.47 µM·h. The half-life in data set [2] (po, 2 mg/kg, PO, read-out: Half life T1/2 (PO) (converted)) is 5.44 h.

(Values after patent US12479794B2, “Acetophenone oxime compound and application thereof” (Medshine Discovery Inc., priority 2020, dated 2025).)
